Source: ChEMBL document CHEMBL4052734, “Synthesis of novel 2-pyrazoline analogues with potent anti-inflammatory effect mediated by inhibition of phospholipase A2: Crystallographic, in silico docking and QSAR analysis” (Bioorg Med Chem Lett, 2017)
≈ marks a conversion by molar mass, not a printed value. Calls of active or inactive are those of the source. The rule behind the calls is not given here.

How the values were obtained:
Aspergillus niger = test: Antifungal activity against Aspergillus niger after 72 hrs by serial dilution method; type: functional
Aspergillus flavus = test: Antifungal activity against Aspergillus flavus after 72 hrs by serial dilution method; type: functional
Bacillus subtilis = test: Antibacterial activity against Bacillus subtilis MTCC 441 after 24 hrs by serial dilution method; type: functional; conditions: MTCC 441, 24 h
Candida albicans = test: Antifungal activity against Candida albicans MTCC 227 after 72 hrs by serial dilution method; type: functional
Escherichia coli = test: Antibacterial activity against Escherichia coli MTCC 1687 after 24 hrs by serial dilution method; type: functional; conditions: MTCC 1687, 24 h
[1] = target: T1, Basic phospholipase A2 VRV-PL-VIIIa (Daboia russelii, UniProt P59071); test: (§1) Inhibition of Vipera russelii venom sPLA2 using DMPC as substrate preincubated for 2 mins followed by substrate addition measured after 30 mins
T1 sequence (P59071 whole entry): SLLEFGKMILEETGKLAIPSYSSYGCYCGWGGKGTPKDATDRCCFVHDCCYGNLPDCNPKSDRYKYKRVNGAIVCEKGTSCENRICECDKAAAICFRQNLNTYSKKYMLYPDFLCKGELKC

[2] = target: T2, Basic phospholipase A2 VRV-PL-VIIIa (Daboia russelii) (UniProt P59071); test: as §1
T2 sequence (whole entry): T1 sequence (P59071 whole entry)

Staphylococcus aureus = test: Antibacterial activity against Staphylococcus aureus MTCC 737 after 24 hrs by serial dilution method; type: functional; conditions: MTCC 737, 24 h
[3] = target: T2, Basic phospholipase A2 VRV-PL-VIIIa (Daboia russelii); test: Inhibition of Vipera russelii venom sPLA2 using DMPC as substrate at 11.102 uM preincubated for 2 mins followed by substrate addition measured after 30 mins in presence of 1 to 12 mM CaCl2
[4] = target: T2, Basic phospholipase A2 VRV-PL-VIIIa (Daboia russelii); test: Inhibition of Vipera russelii venom sPLA2 using DMPC as substrate at 11.930 uM preincubated for 2 mins followed by substrate addition measured after 30 mins in presence of 1 to 12 mM CaCl2
[5] = target: T2, Basic phospholipase A2 VRV-PL-VIIIa (Daboia russelii); test: Inhibition of Vipera russelii venom sPLA2 using DMPC as substrate at 10.214 uM preincubated for 2 mins followed by substrate addition measured after 30 mins in presence of 1 to 12 mM CaCl2

Clc1cccc(N2N=C(c3ccc4c(c3)OCO4)CC2c2cccc(Cl)c2Cl)c1 (stereo unspecified)
MIC90 (Aspergillus niger): 120 µg/mL (≈ 269 µM) | MIC90 (Aspergillus flavus): 120 µg/mL (≈ 269 µM) | MIC90 (Bacillus subtilis): 140 µg/mL (≈ 314 µM) | MIC90 (Candida albicans; MTCC 227, 72 h): 130 µg/mL (≈ 292 µM) | MIC90 (Escherichia coli): 130 µg/mL (≈ 292 µM) | IC50 [1]: 49.8 µM | inhibition [2]: Dose-dependent effect | MIC90 (Staphylococcus aureus): 120 µg/mL (≈ 269 µM)

O=C(O)c1cn(C2CC2)c2cc(N3CCNCC3)c(F)cc2c1=O [CIPROFLOXACIN]
MIC90 (Bacillus subtilis): 40 µg/mL (≈ 121 µM) | MIC90 (Escherichia coli): 20 µg/mL (≈ 60.4 µM) | MIC90 (Staphylococcus aureus): 20 µg/mL (≈ 60.4 µM)

Fc1ccc(C2=NN(c3cccc(Cl)c3)C(c3cccc(Cl)c3Cl)C2)cc1 (stereo unspecified)
MIC90 (Aspergillus niger): 30 µg/mL (≈ 71.5 µM) | MIC90 (Aspergillus flavus): 130 µg/mL (≈ 310 µM) | MIC90 (Bacillus subtilis): 120 µg/mL (≈ 286 µM) | MIC90 (Candida albicans; MTCC 227, 72 h): 50 µg/mL (≈ 119 µM) | MIC90 (Escherichia coli): 25 µg/mL (≈ 59.6 µM) | IC50 [1]: 19.2 µM | inhibition [2]: Dose-dependent effect | MIC90 (Staphylococcus aureus): 40 µg/mL (≈ 95.3 µM)

Clc1cccc(C2CC(c3ccccc3)=NN2c2ccccc2)c1Cl (stereo unspecified)
MIC90 (Aspergillus niger): 30 µg/mL (≈ 81.7 µM) | MIC90 (Aspergillus flavus): 110 µg/mL (≈ 299 µM) | MIC90 (Bacillus subtilis): 125 µg/mL (≈ 340 µM) | MIC90 (Candida albicans; MTCC 227, 72 h): 25 µg/mL (≈ 68.1 µM) | MIC90 (Escherichia coli): 75 µg/mL (≈ 204 µM) | IC50 [1]: 12 µM | inhibition [2]: Dose-dependent effect | MIC90 (Staphylococcus aureus): 50 µg/mL (≈ 136 µM)

Cc1ccc(C2=NN(c3ccccc3)C(c3cccc(Cl)c3Cl)C2)cc1 (stereo unspecified)
MIC90 (Aspergillus niger): 75 µg/mL (≈ 197 µM) | MIC90 (Aspergillus flavus): 120 µg/mL (≈ 315 µM) | MIC90 (Bacillus subtilis): 120 µg/mL (≈ 315 µM) | MIC90 (Candida albicans; MTCC 227, 72 h): 60 µg/mL (≈ 157 µM) | MIC90 (Escherichia coli): 60 µg/mL (≈ 157 µM) | IC50 [1]: 21.7 µM | inhibition [2]: Dose-dependent effect | MIC90 (Staphylococcus aureus): 60 µg/mL (≈ 157 µM)

Clc1cccc(N2N=C(c3ccccc3)CC2c2cccc(Cl)c2Cl)c1 (stereo unspecified)
MIC90 (Aspergillus niger): 20 µg/mL (≈ 49.8 µM) | MIC90 (Aspergillus flavus): 125 µg/mL (≈ 311 µM) | MIC90 (Bacillus subtilis): 120 µg/mL (≈ 299 µM) | MIC90 (Candida albicans; MTCC 227, 72 h): 15 µg/mL (≈ 37.3 µM) | MIC90 (Escherichia coli): 20 µg/mL (≈ 49.8 µM) | IC50 [1]: 19.3 µM | inhibition [2]: Dose-dependent effect | MIC90 (Staphylococcus aureus): 20 µg/mL (≈ 49.8 µM)

NYSTATIN
MIC90 (Aspergillus niger): 25 µg/mL | MIC90 (Aspergillus flavus): 25 µg/mL | MIC90 (Candida albicans): 20 µg/mL

COc1cccc(C2=NN(c3cccc(Cl)c3)C(c3cccc(Cl)c3Cl)C2)c1 (stereo unspecified)
MIC90 (Aspergillus niger): 60 µg/mL (≈ 139 µM) | MIC90 (Aspergillus flavus): 130 µg/mL (≈ 301 µM) | MIC90 (Bacillus subtilis): 125 µg/mL (≈ 290 µM) | MIC90 (Candida albicans; MTCC 227, 72 h): 50 µg/mL (≈ 116 µM) | MIC90 (Escherichia coli): 30 µg/mL (≈ 69.5 µM) | IC50 [1]: 30.1 µM | inhibition [2]: Dose-dependent effect | MIC90 (Staphylococcus aureus): 50 µg/mL (≈ 116 µM)

COc1ccccc1C1=NN(c2ccccc2)C(c2cccc(Cl)c2Cl)C1 (stereo unspecified)
MIC90 (Aspergillus niger): 40 µg/mL (≈ 101 µM) | MIC90 (Aspergillus flavus): 125 µg/mL (≈ 315 µM) | MIC90 (Bacillus subtilis): 125 µg/mL (≈ 315 µM) | MIC90 (Candida albicans; MTCC 227, 72 h): 30 µg/mL (≈ 75.5 µM) | MIC90 (Escherichia coli): 50 µg/mL (≈ 126 µM) | IC50 [1]: 30.3 µM | inhibition [2]: Dose-dependent effect | MIC90 (Staphylococcus aureus): 40 µg/mL (≈ 101 µM)

Fc1ccc(C2=NN(c3ccccc3)C(c3cccc(Cl)c3Cl)C2)cc1 (stereo unspecified)
MIC90 (Aspergillus niger): 30 µg/mL (≈ 77.9 µM) | MIC90 (Aspergillus flavus): 120 µg/mL (≈ 311 µM) | MIC90 (Bacillus subtilis): 125 µg/mL (≈ 324 µM) | inhibition [3]: Active | MIC90 (Candida albicans; MTCC 227, 72 h): 50 µg/mL (≈ 130 µM) | MIC90 (Escherichia coli): 25 µg/mL (≈ 64.9 µM) | IC50 [1]: 11.1 µM | inhibition [2]: Dose-dependent effect | MIC90 (Staphylococcus aureus): 40 µg/mL (≈ 104 µM)

Clc1ccc(C2=NN(c3cccc(Cl)c3)C(c3cccc(Cl)c3Cl)C2)cc1 (stereo unspecified)
MIC90 (Aspergillus niger): 15 µg/mL (≈ 34.4 µM) | MIC90 (Aspergillus flavus): 110 µg/mL (≈ 252 µM) | MIC90 (Bacillus subtilis): 100 µg/mL (≈ 229 µM) | MIC90 (Candida albicans; MTCC 227, 72 h): 15 µg/mL (≈ 34.4 µM) | MIC90 (Escherichia coli): 15 µg/mL (≈ 34.4 µM) | IC50 [1]: 14.6 µM | inhibition [2]: Dose-dependent effect | MIC90 (Staphylococcus aureus): 10 µg/mL (≈ 22.9 µM)

COc1ccccc1C1=NN(c2cccc(Cl)c2)C(c2cccc(Cl)c2Cl)C1 (stereo unspecified)
MIC90 (Aspergillus niger): 50 µg/mL (≈ 116 µM) | MIC90 (Aspergillus flavus): 130 µg/mL (≈ 301 µM) | MIC90 (Bacillus subtilis): 140 µg/mL (≈ 324 µM) | MIC90 (Candida albicans; MTCC 227, 72 h): 40 µg/mL (≈ 92.6 µM) | MIC90 (Escherichia coli): 40 µg/mL (≈ 92.6 µM) | IC50 [1]: 35.1 µM | inhibition [2]: Dose-dependent effect | MIC90 (Staphylococcus aureus): 40 µg/mL (≈ 92.6 µM)

COc1ccc(C2=NN(c3ccccc3)C(c3cccc(Cl)c3Cl)C2)cc1 (stereo unspecified)
inhibition [4]: Active | MIC90 (Aspergillus niger): 50 µg/mL (≈ 126 µM) | MIC90 (Aspergillus flavus): 125 µg/mL (≈ 315 µM) | MIC90 (Bacillus subtilis): 140 µg/mL (≈ 352 µM) | MIC90 (Candida albicans; MTCC 227, 72 h): 30 µg/mL (≈ 75.5 µM) | MIC90 (Escherichia coli): 40 µg/mL (≈ 101 µM) | IC50 [1]: 11.9 µM | inhibition [2]: Dose-dependent effect | MIC90 (Staphylococcus aureus): 40 µg/mL (≈ 101 µM)

Clc1cccc(C2CC(c3ccc4c(c3)OCO4)=NN2c2ccccc2)c1Cl (stereo unspecified)
MIC90 (Aspergillus niger): 130 µg/mL (≈ 316 µM) | MIC90 (Aspergillus flavus): 130 µg/mL (≈ 316 µM) | MIC90 (Bacillus subtilis): 140 µg/mL (≈ 340 µM) | MIC90 (Candida albicans; MTCC 227, 72 h): 120 µg/mL (≈ 292 µM) | MIC90 (Escherichia coli): 140 µg/mL (≈ 340 µM) | IC50 [1]: 48.2 µM | inhibition [2]: Dose-dependent effect | MIC90 (Staphylococcus aureus): 130 µg/mL (≈ 316 µM)

Clc1ccc(C2=NN(c3ccccc3)C(c3cccc(Cl)c3Cl)C2)cc1 (stereo unspecified)
MIC90 (Aspergillus niger): 25 µg/mL (≈ 62.2 µM) | MIC90 (Aspergillus flavus): 120 µg/mL (≈ 299 µM) | MIC90 (Bacillus subtilis): 125 µg/mL (≈ 311 µM) | inhibition [5]: Active | MIC90 (Candida albicans; MTCC 227, 72 h): 15 µg/mL (≈ 37.3 µM) | MIC90 (Escherichia coli): 20 µg/mL (≈ 49.8 µM) | IC50 [1]: 10.2 µM | inhibition [2]: Dose-dependent effect | MIC90 (Staphylococcus aureus): 15 µg/mL (≈ 37.3 µM)

COc1cccc(C2=NN(c3ccccc3)C(c3cccc(Cl)c3Cl)C2)c1 (stereo unspecified)
MIC90 (Aspergillus niger): 40 µg/mL (≈ 101 µM) | MIC90 (Aspergillus flavus): 120 µg/mL (≈ 302 µM) | MIC90 (Bacillus subtilis): 130 µg/mL (≈ 327 µM) | MIC90 (Candida albicans; MTCC 227, 72 h): 40 µg/mL (≈ 101 µM) | MIC90 (Escherichia coli): 50 µg/mL (≈ 126 µM) | IC50 [1]: 29.8 µM | inhibition [2]: Dose-dependent effect | MIC90 (Staphylococcus aureus): 50 µg/mL (≈ 126 µM)
